From patent US20150307520A1, “NOVEL HETEROARYL AND HETEROCYCLE COMPOUNDS, COMPOSITIONS AND METHODS THEREOF” (HUTCHISON MEDIPHARMA LIMITED, priority 2012, published 2015)

Experiments:
Assay type in all cases: biochemical
p110β/p85α = p110β/p85α (Homo sapiens, UniProt P42338); assay: Transcreener KINASE Assay, kinase inhibition of p110β/p85α; details: for PI3Kβ IH % @ 1 uM: 1 uM test compound; for IC50: read-out: PI3Kβ IC50
How it was run: (§1)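 Steps: compound (2% DMSO final) plus enzyme in HEPES/NaCl/EGTA/CHAPS/3 mM MgCl2/1 mM DTT buffer; start with PIP2/ATP addition (30 uM/10 uM solution); 80 min RT; add ADP detection mix, 60 min RT; read fluorescence polarization.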

p110δ/p85α = p110δ/p85α (Homo sapiens, UniProt O00329); assay: Transcreener KINASE Assay, kinase inhibition of p110δ/p85α; details: for PI3Kδ IH % @ 1 uM: 1 uM test compound; for IC50: read-out: PI3Kδ IC50
How it was run: as §1

p110γ = p110γ (Homo sapiens, UniProt P48736); assay: Transcreener KINASE Assay, kinase inhibition of p110γ; details: for PI3Kγ IH % @ 1 uM: 1 uM test compound; for IC50: read-out: PI3Kγ IC50
How it was run: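 Steps: enzyme reaction with compound, 80 min at room temperature; add ADP detection reagent, incubate 60 min at room temperature; read fluorescence polarization. Inhibition and IC50 values are derived from the ADP signal.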

Chain of p110β/p85α (P42338 whole entry): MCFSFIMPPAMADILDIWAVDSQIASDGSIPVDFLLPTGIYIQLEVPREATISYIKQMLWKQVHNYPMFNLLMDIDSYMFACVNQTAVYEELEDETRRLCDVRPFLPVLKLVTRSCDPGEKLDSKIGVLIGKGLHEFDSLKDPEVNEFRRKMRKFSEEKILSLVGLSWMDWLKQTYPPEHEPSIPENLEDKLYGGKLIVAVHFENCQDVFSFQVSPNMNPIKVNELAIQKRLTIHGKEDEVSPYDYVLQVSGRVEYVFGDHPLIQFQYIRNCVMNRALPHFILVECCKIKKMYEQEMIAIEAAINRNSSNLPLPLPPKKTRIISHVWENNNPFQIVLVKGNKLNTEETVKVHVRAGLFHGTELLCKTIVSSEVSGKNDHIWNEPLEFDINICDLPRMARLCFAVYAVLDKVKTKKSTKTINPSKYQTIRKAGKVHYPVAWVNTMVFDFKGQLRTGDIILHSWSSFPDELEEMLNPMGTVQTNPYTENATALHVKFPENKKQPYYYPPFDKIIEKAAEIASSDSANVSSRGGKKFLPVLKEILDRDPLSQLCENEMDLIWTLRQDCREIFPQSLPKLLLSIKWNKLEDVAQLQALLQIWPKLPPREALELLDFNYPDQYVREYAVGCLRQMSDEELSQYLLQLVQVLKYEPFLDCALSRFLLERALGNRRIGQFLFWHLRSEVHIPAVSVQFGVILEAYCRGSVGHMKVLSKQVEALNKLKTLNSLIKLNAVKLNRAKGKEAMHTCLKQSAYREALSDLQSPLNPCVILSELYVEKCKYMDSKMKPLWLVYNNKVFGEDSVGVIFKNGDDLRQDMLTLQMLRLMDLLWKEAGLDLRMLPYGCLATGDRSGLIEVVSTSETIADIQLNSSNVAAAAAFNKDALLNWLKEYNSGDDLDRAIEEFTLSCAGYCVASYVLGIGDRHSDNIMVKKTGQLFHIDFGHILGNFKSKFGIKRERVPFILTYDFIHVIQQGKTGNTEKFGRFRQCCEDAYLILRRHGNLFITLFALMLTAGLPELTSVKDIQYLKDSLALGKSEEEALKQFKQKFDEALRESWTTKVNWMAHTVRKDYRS
Chain of p110β/p85α (P27986 2-724 partner): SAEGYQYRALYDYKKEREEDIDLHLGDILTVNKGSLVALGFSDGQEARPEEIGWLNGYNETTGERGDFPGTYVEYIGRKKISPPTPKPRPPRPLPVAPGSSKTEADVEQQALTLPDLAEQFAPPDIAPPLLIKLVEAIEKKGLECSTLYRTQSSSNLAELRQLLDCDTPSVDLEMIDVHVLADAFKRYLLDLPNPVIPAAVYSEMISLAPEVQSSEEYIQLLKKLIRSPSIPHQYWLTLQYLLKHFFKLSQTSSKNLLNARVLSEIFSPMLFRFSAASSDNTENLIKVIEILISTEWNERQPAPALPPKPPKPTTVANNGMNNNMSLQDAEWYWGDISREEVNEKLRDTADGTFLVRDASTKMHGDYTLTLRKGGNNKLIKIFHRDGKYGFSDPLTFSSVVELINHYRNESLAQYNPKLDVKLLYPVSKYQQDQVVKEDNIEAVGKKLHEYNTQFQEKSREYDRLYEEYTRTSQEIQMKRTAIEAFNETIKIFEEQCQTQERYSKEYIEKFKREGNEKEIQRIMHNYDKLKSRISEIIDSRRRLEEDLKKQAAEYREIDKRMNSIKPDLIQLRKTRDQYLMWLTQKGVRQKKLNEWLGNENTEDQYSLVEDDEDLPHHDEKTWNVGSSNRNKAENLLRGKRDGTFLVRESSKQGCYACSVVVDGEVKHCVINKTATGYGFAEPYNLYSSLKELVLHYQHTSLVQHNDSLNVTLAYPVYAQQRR
Chain of p110γ (P48736 whole entry): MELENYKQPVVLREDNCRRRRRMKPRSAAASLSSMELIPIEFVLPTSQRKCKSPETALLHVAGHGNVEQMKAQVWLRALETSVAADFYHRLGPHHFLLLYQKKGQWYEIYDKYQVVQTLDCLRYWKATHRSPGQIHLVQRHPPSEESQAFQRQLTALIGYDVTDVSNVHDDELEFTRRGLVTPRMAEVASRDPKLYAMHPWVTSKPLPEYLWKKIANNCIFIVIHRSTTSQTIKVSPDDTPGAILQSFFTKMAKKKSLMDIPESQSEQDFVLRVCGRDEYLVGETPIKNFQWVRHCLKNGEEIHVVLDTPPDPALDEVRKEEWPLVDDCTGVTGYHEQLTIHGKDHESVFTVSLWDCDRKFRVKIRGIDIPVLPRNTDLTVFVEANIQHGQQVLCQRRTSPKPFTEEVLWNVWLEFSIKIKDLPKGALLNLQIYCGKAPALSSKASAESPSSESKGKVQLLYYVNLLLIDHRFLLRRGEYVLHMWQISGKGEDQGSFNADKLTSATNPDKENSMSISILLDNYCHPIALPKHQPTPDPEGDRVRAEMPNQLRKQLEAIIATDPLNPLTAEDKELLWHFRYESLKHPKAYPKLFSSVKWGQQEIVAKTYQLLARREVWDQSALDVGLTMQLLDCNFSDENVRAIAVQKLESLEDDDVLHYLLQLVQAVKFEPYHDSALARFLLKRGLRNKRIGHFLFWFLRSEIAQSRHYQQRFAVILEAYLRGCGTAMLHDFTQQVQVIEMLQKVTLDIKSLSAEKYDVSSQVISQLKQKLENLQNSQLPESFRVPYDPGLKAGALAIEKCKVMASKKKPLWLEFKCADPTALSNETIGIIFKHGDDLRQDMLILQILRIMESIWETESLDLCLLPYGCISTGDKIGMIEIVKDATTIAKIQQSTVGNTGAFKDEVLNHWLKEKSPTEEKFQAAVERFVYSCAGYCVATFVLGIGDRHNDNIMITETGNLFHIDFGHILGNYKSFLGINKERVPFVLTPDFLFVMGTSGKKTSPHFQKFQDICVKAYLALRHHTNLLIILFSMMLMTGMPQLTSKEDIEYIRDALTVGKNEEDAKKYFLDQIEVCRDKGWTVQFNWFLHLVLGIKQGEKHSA
Chain of p110δ/p85α (O00329 whole entry): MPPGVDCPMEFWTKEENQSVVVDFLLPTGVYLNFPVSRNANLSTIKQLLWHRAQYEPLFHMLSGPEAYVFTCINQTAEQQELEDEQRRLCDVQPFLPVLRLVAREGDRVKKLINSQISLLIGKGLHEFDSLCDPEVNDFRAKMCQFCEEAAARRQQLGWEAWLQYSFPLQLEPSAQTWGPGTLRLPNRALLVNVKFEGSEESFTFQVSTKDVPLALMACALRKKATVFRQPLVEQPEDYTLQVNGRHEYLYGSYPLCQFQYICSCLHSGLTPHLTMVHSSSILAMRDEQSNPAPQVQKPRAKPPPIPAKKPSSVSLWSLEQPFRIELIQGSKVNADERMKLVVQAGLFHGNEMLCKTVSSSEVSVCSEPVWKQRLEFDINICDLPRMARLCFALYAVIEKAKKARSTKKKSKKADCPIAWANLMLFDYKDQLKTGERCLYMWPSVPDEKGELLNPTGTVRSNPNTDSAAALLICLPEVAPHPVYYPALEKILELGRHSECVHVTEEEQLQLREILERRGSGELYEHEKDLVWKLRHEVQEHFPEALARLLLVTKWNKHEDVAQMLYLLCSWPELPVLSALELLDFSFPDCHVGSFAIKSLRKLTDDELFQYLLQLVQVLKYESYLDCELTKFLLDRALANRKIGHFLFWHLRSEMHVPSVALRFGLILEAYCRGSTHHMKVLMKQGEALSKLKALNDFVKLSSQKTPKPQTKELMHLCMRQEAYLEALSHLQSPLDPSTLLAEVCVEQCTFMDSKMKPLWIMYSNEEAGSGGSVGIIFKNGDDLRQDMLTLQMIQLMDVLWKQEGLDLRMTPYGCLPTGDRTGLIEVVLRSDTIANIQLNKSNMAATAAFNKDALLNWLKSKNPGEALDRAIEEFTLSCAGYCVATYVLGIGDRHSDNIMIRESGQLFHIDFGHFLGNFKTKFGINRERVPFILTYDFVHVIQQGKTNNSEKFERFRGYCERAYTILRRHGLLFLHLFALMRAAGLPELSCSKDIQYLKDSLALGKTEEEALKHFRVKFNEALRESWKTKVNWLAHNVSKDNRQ
Chain of p110δ/p85α (P27986 whole entry partner): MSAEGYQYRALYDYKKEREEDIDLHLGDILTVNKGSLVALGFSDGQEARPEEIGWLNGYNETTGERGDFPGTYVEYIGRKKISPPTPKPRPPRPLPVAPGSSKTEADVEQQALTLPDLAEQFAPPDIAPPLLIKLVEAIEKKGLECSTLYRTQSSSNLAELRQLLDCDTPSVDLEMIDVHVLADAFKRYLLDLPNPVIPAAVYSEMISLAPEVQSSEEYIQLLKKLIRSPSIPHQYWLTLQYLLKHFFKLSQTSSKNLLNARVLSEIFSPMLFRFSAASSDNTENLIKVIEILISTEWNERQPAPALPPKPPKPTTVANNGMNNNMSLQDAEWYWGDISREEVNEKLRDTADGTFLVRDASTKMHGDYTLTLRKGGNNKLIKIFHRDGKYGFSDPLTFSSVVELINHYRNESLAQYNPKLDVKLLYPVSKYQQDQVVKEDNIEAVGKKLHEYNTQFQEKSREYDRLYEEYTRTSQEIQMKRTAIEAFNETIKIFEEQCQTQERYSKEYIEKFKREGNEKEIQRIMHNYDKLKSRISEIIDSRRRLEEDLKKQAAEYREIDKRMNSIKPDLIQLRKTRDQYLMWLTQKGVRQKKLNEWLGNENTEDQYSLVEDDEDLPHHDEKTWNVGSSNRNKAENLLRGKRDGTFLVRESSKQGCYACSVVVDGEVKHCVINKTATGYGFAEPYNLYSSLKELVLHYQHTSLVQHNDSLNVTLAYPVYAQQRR

Compound	PI3Kβ IH % @ 1 uM (p110β/p85α) [%]	PI3Kδ IH % @ 1 uM (p110δ/p85α) [%]	IC50 (p110δ/p85α) [nM]	PI3Kγ IH % @ 1 uM (p110γ) [%]	IC50 (p110γ) [nM]	IC50 (p110β/p85α) [nM]
Nc1nc2c(c(N3CCC[C@H]3c3nn4ccc(Cl)c4c(=O)n3-c3ccccc3)n1)C(=O)CCN2 [Compound 242]	46.5	96.8	10	98.9	19	
C[C@H]1CN(c2ncnc3[nH]cc(C#N)c23)[C@@H]1c1nn2ccc(F)c2c(=O)n1-c1ccccc1 [Compound 244]	58.4	99.8	4	92.7	30	
Nc1nc2c(c(N3CCC[C@H]3c3nn4ccc(Br)c4c(=O)n3-c3ccccc3)n1)CCC2 [Compound 245]	38.4	78.0	341	77.5	337	
Nc1nc2c(c(N3CCC[C@H]3c3nn4ccc(Cl)c4c(=O)n3-c3ccccc3)n1)CCC2 [Compound 246]	2.5	84.6	562	80.8	696	
Nc1nc2c(c(N3CC[C@H]3c3nn4ccc(Cl)c4c(=O)n3-c3ccccc3)n1)CCC2 [Compound 247]	4.8	53.0		73.0		
Nc1nc2c(c(N3CC[C@H]3c3nn4ccc(F)c4c(=O)n3-c3ccccc3)n1)C(=O)CCN2 [Compound 248]	−10.7	96.2	9	98.0	9	
Nc1nc2c(c(N3CCC[C@H]3c3nn4ccc(F)c4c(=O)n3-c3ccccc3)n1)C(=O)CCN2 [Compound 249]	24.8	99.3	8	98.0	29	
Nc1nc2c(c(N3C[C@@H](F)C[C@H]3c3nn4ccc(F)c4c(=O)n3-c3ccccc3)n1)C(=O)CCN2 [Compound 250]	33.4	99.1	22	95.8	45	
CN(C)CCn1c([C@@H]2CCCN2c2ncnc3[nH]cnc23)nn2ccc(Cl)c2c1=O [Compound 251]	50.4	88.3	102	56.3		
CN(C)CCn1c([C@@H]2CCCN2c2ncnc3[nH]cc(C#N)c23)nn2ccc(Cl)c2c1=O [Compound 252]	56.6	97.0	7	68.9		
O=c1c2c(Cl)ccn2nc([C@@H]2CCCN2c2ncnc3[nH]cnc23)n1CCN1CCOCC1 [Compound 253]	45.1	92.8	52	69.0	553	
N#Cc1c[nH]c2ncnc(N3CCC[C@H]3c3nn4ccc(Cl)c4c(=O)n3CCN3CCOCC3)c12 [Compound 255]	72.6	>100	4	>100	73	304
N#Cc1c[nH]c2ncnc(N3CCC[C@H]3c3nn4ccc(Cl)c4c(=O)n3CC3CC3)c12 [Compound 257]	82.4	>100	2	>100	18	80
N#Cc1c[nH]c2ncnc(N3CCC[C@H]3c3nn4ccc(Cl)c4c(=O)n3CC3CCCCC3)c12 [Compound 258]	10.4	94.7	76	73.0	467	
CC(C)Cn1c([C@@H]2CCN2c2ncnc3[nH]cc(C#N)c23)nn2ccc(Cl)c2c1=O [Compound 259]	41.5	98.8	27	89.5	170	
CC(C)Cn1c([C@@H]2CCN2c2nc(N)ncc2C#N)nn2ccc(Cl)c2c1=O [Compound 260]	39.6	98.0	40	90.9	163	
N#Cc1c[nH]c2ncnc(N3C[C@@H](O)C[C@H]3c3nn4ccc(Cl)c4c(=O)n3-c3cccc(F)c3)c12 [Compound 261]	>100	>100	1	>100	3	31
O=c1c2c(Cl)ccn2nc([C@@H]2C[C@H](O)CN2c2ncnc3[nH]cnc23)n1-c1ccccc1 [Compound 262]	88.8	97.1		93.4	11	18
CO[C@H]1C[C@@H](c2nn3ccc(Cl)c3c(=O)n2-c2ccccc2)N(c2ncnc3[nH]cnc23)C1 [Compound 263]	74.5	>100	4	>100	17	118
COCCO[C@H]1C[C@@H](c2nn3ccc(Cl)c3c(=O)n2-c2ccccc2)N(c2ncnc3[nH]cc(C#N)c23)C1 [Compound 264, 4-((2S,4S)-2-(5-chloro-4-oxo-3-phenyl-3,4-dihydropyrrolo[2,1-f][1,2,4]triazin-2-yl)-4-(2-methoxyethoxyl)pyrrolidin-1-yl)-7H-pyrrolo[2,3-d]pyrimidine-5-carbonitrile]	92.8	>100	1	>100	3	69
O=c1c2c(Cl)ccn2nc([C@@H]2C[C@H](OCCO)CN2c2ncnc3[nH]cnc23)n1-c1ccccc1 [Compound 265]	68.6	>100	1	>100	11	300
COCCO[C@H]1C[C@@H](c2nn3ccc(Cl)c3c(=O)n2-c2ccccc2)N(c2ncnc3[nH]cnc23)C1 [Compound 266]	49.9	>100	6	>100	21	
C[S+]([O-])c1c[nH]c2ncnc(N3C[C@@H](F)C[C@H]3c3nn4ccc(Cl)c4c(=O)n3-c3ccccc3)c12 (stereo partly drawn) [Compound 267]	73.2	98.9	3	>100	13	206
CC(Nc1ncnc2[nH]cc(S(C)(=O)=O)c12)c1cn2ccc(Cl)c2c(=O)n1-c1ccccc1 (stereo not drawn) [Compound 269]	38.1	94.7	147	>100	93	
CC(Nc1ncnc2[nH]cc(F)c12)c1cn2ccc(Cl)c2c(=O)n1-c1ccccc1 (stereo not drawn) [Compound 270]	87.4	>100	12	89.7	22	174
CC(Nc1nc(N)ncc1C#N)c1cn2ccc(Cl)c2c(=O)n1-c1ccccc1 (stereo not drawn) [Compound 271]	94.2	>100	1	97.6	2	15
CC(=O)c1c[nH]c2ncnc(NC(C)c3cn4ccc(Cl)c4c(=O)n3-c3ccccc3)c12 (stereo not drawn) [Compound 272]	76.9	98.8	7	>100	21	239
